Measured values taken from US20170224679A1, “Use of CXCR2 Antagonists For The Prevention and/or Treatment of Chemotherapy Induced Peripheral Neuropathy (CIPN)” (GlaxoSmithKline Intellectual Property Development Limited, priority 2014, published 2017).

Assays:
Format in all cases: cell-based
CXCR1 receptor = target: T1, CXCR1 receptor (Homo sapiens, UniProt P25024); assay: GPCR Arrestin Assay (DiscoveRX PathHunter), CXCR1; design: host or cells: PathHunter CHO cell lines; conditions: PathHunter CHO cells, agonist at EC80; read-out: pIC50 against the CXCR1 receptor (converted)
T1 sequence (P25024 1-350): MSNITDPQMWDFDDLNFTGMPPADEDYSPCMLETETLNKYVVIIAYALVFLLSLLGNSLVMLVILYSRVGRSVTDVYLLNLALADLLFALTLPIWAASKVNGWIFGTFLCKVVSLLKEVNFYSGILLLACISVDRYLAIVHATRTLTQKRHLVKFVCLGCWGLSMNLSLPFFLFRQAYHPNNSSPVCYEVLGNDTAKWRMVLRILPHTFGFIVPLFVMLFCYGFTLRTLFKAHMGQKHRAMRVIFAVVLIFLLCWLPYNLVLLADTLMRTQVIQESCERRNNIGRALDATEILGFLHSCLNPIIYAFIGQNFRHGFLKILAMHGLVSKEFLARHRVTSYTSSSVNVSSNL
Description: (§1) Certain compounds of the invention were also tested by DiscoveRX Corporation (42501 Albrae Street, Fremont, Calif. 94538, United States) in their GPCR Arrestin Assay to determine their activity against a panel of receptors including CXCR2 and CXCR1. PathHunter CHO cell lines were expanded from freezer stocks according to standard procedures. Cells were seeded in a total volume of 20 μL into white walled, 384-well microplates and incubated at 37° C. for the appropriate time prior to testing. The cells were pre-incubated with antagonist followed by agonist challenge at the EC80 concentration. Intermediate dilution of sample stocks was performed to generate 5× sample in assay buffer. 5 μL of 5× sample was added to cells and incubated at 37° C. or room temperature for 30 minutes. […] Assay signal was generated through a single addition of 12.5 or 15 μL (50% v/v) of PathHunter Detection reagent cocktail, followed by one hour incubation at room temperature. Microplates were read following signal generation with a PerkinElmer Envision™ instrument for chemiluminescent signal detection. Compound activity was analyzed using CBIS data analysis suite (ChemInnovation, Calif.).

CXCR2 receptor [1] = target: T2, CXCR2 receptor (Homo sapiens, UniProt P25025); assay: Human whole blood assay version ii) (CD11b, GROα stimulated); design: Assay d) measures the cellular functional activity to the native expressed human CXCR2 in whole blood; endogenous in cells; host or cells: human whole blood (neutrophils); conditions: 33 nM GROα, neutrophil CD11b, read-out: pIC50 against the CXCR2 receptor (converted)
T2 sequence (P25025 1-360): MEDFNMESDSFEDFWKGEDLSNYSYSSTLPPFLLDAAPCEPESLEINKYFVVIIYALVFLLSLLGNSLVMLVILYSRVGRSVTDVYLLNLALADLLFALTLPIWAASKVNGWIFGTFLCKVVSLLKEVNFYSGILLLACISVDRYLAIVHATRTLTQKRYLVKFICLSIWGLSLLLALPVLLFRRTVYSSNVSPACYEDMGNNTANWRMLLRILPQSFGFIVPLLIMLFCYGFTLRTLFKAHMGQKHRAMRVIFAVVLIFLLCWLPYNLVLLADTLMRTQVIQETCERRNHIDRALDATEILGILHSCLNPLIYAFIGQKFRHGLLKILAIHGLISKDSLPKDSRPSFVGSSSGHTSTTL
Description: Blood was withdrawn by venipuncture from consented adults and poured into a Sterilin tube containing an anti-coagulant Heparin (10 μL/mL of blood). All the test compounds were dissolved in DMSO to 4 mM and serial diluted across the plate, 1 in 3 to provide 10 point dose response curves. The compounds were then diluted 100 fold in -PBS [Phosphate buffered saline (without Calcium Chloride and Magnesium Chloride)] after which, 1 μL was dispensed in 96 U bottom Costar plates using an FX. This was done to reduce the final DMSO concentration to 0.25% and for compounds to be screened at 10 uM final assay concentration, after addition of blood.
10 μL of blood was transferred to the compound plate using a multi-channel pipette, gently tapped and incubated for 15 minutes, at 37° C. After 15 minutes, the stimulant GROα was diluted to 100 nM in 0.1% BSA (Albumin Bovine Serum)-PBS and 5 μL is dispensed across the whole plate for a final concentration of 33 nM. The plate was gently tapped and incubated further for 15 minutes at 37° C. […]
Samples were run on a Becton and Dickinson (BD)-Acurri C6 Flow Cytometer using a HyperCyt sampling apparatus (IntelliCyt) with a flow rate 2 μL/sec. CD11 b upregulation is monitored in neutrophils and identified using a combination of both side scatter and CD16 expression.

CXCR2 receptor [2] = target: T2, CXCR2 receptor; assay: GPCR Arrestin Assay (DiscoveRX PathHunter), CXCR2; design: host or cells: PathHunter CHO cell lines
Description: as §1

CXCR2 receptor [3] = target: T2, CXCR2 receptor; assay: CXCR2 Tango assay; design: fused on or other part: TEV protease cleavage site and Gal4-VP16 transcription factor fused to the receptor (Invitrogen Tango construct); no part of the key; conditions: Tango reporter gene, 80 nM hCXCL1; read-out: pIC50 against the CXCR2 receptor (converted)
Text: The assay measures ligand-induced activation of the receptor CXCR2 in a stable cell line containing the recombinant human CXCR2 linked to a TEV protease site and a Gal4-VP16 transcription factor (Invitrogen). Ligand binding to the receptor results in the recruitment of arrestin proteins (tagged with protease) to the receptor and triggers the release of a tethered transcription factor. The transcription factor enters the nucleus and activates the transcription of the reporter gene. The ability of a compound to inhibit CXCR2 activation is indirectly assessed by measuring the reporter gene activity.
A vial of cryopreserved cells was removed from liquid nitrogen and rapidly thawed in a water bath at 37° C. with gentle agitation. The cell contents were collected and resuspended in Assay Medium at a density of ˜200,000 cells/ml. All test compounds were dissolved in DMSO at a concentration of 10 mM and then were serially diluted to generate a 10-point dose response curve into 384-well assay plate (Greiner 781090) using an Echo (Labcyte) concentration-response program (50 nl/well). The cell-free, un-stimulated and positive controls were loaded with 50 nl/well pure DMSO to ensure that the DMSO concentration was constant across the plate for all assays. Using Multi-drop Combi (Thermo) with standard cassette, 50 μl of Assay Medium was added to cell-free control wells in compound-containing assay plate; 50 μl of the cell suspension without hCXCL1 (a CXCR2 ligand) was added to un-stimulated control wells (10,000 cells per well); and 50 μl of the cell suspension with 80 nM hCXCL1 was added to the rest of wells of the assay plate (10,000 cells per well). The cells were incubated overnight at 37° C./5% CO2·10 μl of 6× substrate mixture (LiveBLAzer™-FRET B/G substrate (CCF4-AM) Cat #K1096 from Invitrogen, Inc.) was added to each well using Multi-drop Combi (Thermo) with small-tube cassette and the plate was incubated at room temperature for 2 h in the dark. The plate was then read on EnVision using one excitation channel (409 nm) and two emission channels (460 nm and 530 nm).
The blue/green emission ratio (460 nm/530 nm) was calculated for each well by dividing the background-subtracted Blue emission values by the background-subtracted Green emission values. The dose response curve was based on sigmoidal dose-response model. All ratio data was normalized based upon the maximum emission ratio of positive control (hCXCL1) and minimum emission ratio of negative control (DMSO) on each plate.

**Q.** For `CC1=CCC[C@H]1NC(=O)Nc1ccc(Cl)c(S(=O)(=O)[C@@]2(C)CCOC2)c1O` [Compound of Formula (J), 1-(4-chloro-2-hydroxy-3-(((S)-3-methyltetrahydrofuran-3-yl)sulfonyl)phenyl)-3-((R)-2-methylcyclopent-2-en-1-yl)urea], which IC50 (CXCR1 receptor) is on record?
**A.** Its IC50 is 3980 nM.

**Q.** What about the IC50 (CXCR2 receptor [1]) of the same compound?
**A.** Its IC50 is 39.8 nM.

**Q.** What about the “selectivity for CXCR2 over CXCR1” value (CXCR2 receptor [2]; GPCR Arrestin Assay e)) of the same compound?
**A.** Its value is 730 fold.

**Q.** And the IC50 (CXCR2 receptor [2]; PathHunter CHO cells, agonist at EC80, read-out: pIC50 against the CXCR2 receptor (converted))?
**A.** Its IC50 is 5.01 nM.

**Q.** What about the IC50 (CXCR2 receptor [3]) of the same compound?
**A.** Its IC50 is 1 nM.
